For 16 compounds, EC50 results are on record in US12077537B2 (Gilead Sciences, Inc., priority 2020, dated 2024).

This test relates to HIV-IIIb. The experiment in a line: Antiviral assay in MT4 cells. The test is classed as cell-based. Conditions: Human immunodeficiency virus 1, MT4, 120 h; MT-4 cells mixed with HIV-IIIb at m.o.i. 0.003; 5 days at 37° C.; CellTiter-Glo luminescence; 50% decrease in signal, a measure of HIV-1 replication. The procedure, abridged: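 MT-4 cells were infected with HIV-IIIb at m.o.i. 0.003 for 1 hour, then added to 3-fold serially diluted compound (10 concentrations, quadruplicate) in medium with 10% FBS. After 5 days at 37° C, cell viability was read by CellTiter-Glo chemiluminescence.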
For orientation: ATP-based viability assays read luminescence as a measure of living cells.

A word on the EC50: it is the concentration giving half of the maximal effect. A high value points to a less potent agent.

As for `O=C(Cn1nc(C(F)(F)F)c2c1C(F)(F)[C@@H]1C[C@H]21)N[C@@H](Cc1cc(F)cc(F)c1)c1nc2nc(N3CCN(c4nc5ccccc5[nH]4)CC3)sc2cc1-c1ccc2c(c1)C(=O)NC21CC1` [Compound 44, N—((S)-1-(2-(4-(1H-benzo[d]imidazol-2-yl)piperazin-1-yl)-6-(3′ oxospiro[cyclopropane-1,1′-isoindolin]-5′-yl)thiazolo[4,5-b]pyridin-5-yl)-2-(3,5-difluorophenyl)ethyl)-2-((3bS,4aR)-5,5-difluoro-3-(trifluoromethyl)-3b,4,4a,5-tetrahydro-1H-cyclopropa[3,4]cyclopenta[1,2-c]pyrazol-1-yl)acetamide], the midpoint of the response, the EC50, lay at 89.1 nM.

On to `CCS(=O)(=O)Nc1nn(C)c2c(-c3cc4sc(NCC(C)(C)O)nc4nc3[C@H](Cc3cc(F)cc(F)c3)NC(=O)Cn3nc(C(F)(F)F)c4c3C(F)(F)[C@@H]3C[C@H]43)cccc12` [Compound 63, 2-((3bS,4aR)-5,5-difluoro-3-(trifluoromethyl)-3b,4,4a,5-tetrahydro-1H-cyclopropa[3,4]cyclopenta[1,2-c]pyrazol-1-yl)-N—((S)-2-(3,5-difluorophenyl)-1-(6-(3-(ethylsulfonamido)-1-methyl-1H-indazol-7-yl)-2-((2-hydroxy-2-methylpropyl)amino)thiazolo[4,5-b]pyridin-5-yl)ethyl)acetamide], for which the EC50 came out at 7.2 nM.

`Cn1nc(NS(C)(=O)=O)c2cccc(-c3cc4sc(N5CCOCC5)nc4nc3[C@H](Cc3cc(F)cc(F)c3)NC(=O)Cn3nc(C(F)(F)F)c4c3C(F)(F)[C@@H]3C[C@H]43)c21` [Example 82, 2-((3bS,4aR)-5,5-difluoro-3-(trifluoromethyl)-3b,4,4a,5-tetrahydro-1H-cyclopropa[3,4]cyclopenta[1,2-c]pyrazol-1-yl)-N—((S)-2-(3,5-difluorophenyl)-1-(6-(1-methyl-3-(methylsulfonamido)-1H-indazol-7-yl)-2-morpholinothiazolo[4,5-b]pyridin-5-yl)ethyl)acetamide] returned a half-maximal effective concentration (EC50) of 6.6 nM.

Compound `NC(=O)c1cc(-c2cc3sc(N4CCN(c5ccncc5)CC4)nc3nc2[C@H](Cc2cc(F)cc(F)c2)NC(=O)Cn2nc(C(F)F)c3c2C2CC2CC3)ccc1F` (stereo partly shown) [Compound 47] came in with a concentration for a half-maximal effect (EC50) of 29.3 nM.

As for `Cn1nc(NS(C)(=O)=O)c2cccc(-c3cc4sc(N5CC6(CNC6)C5)nc4nc3[C@H](Cc3cc(F)cc(F)c3)NC(=O)Cn3nc(C(F)(F)F)c4c3C(F)(F)[C@@H]3C[C@H]43)c21` [Example 87, 2-((3bS,4aR)-5,5-difluoro-3-(trifluoromethyl)-3b,4,4a,5-tetrahydro-1H-cyclopropa[3,4]cyclopenta[1,2-c]pyrazol-1-yl)-N—((S)-2-(3,5-difluorophenyl)-1-(6-(1-methyl-3-(methylsulfonamido)-1H-indazol-7-yl)-2-(2,6-diazaspiro[3.3]heptan-2-yl)thiazolo[4,5-b]pyridin-5-yl)ethyl)acetamide], the 50% effective concentration (EC50) is 269 nM.

The compound `CSc1nc2nc([C@H](Cc3cc(F)cc(F)c3)NC(=O)Cn3nc(C(F)(F)F)c4c3C(F)(F)[C@@H]3C[C@H]43)c(-c3ccc4c(c3)C(=O)NC4)cc2s1` [Compound 142, 2-((3bS,4aR)-5,5-difluoro-3-(trifluoromethyl)-3b,4,4a,5-tetrahydro-1H-cyclopropa[3,4]cyclopenta[1,2-c]pyrazol-1-yl)-N—((S)-2-(3,5-difluorophenyl)-1-(2-(methylthio)-6-(3-oxoisoindolin-5-yl)thiazolo[4,5-b]pyridin-5-yl)ethyl)acetamide] displayed an EC50 of 38.9 nM. This EC50 lies about 6.9-fold lower than the previous one.

`O=C(Cn1nc(C(F)(F)F)c2c1C(F)(F)[C@@H]1C[C@H]21)N[C@H](Cc1cc(F)cc(F)c1)c1nc2nc(N3CCN(c4ccncc4)CC3)sc2cc1-c1ccc2c(c1)C(=O)NC2` [Compound 37, 2-((3bS,4aR)-5,5-difluoro-3-(trifluoromethyl)-3b,4,4a,5-tetrahydro-1H-cyclopropa[3,4]cyclopenta[1,2-c]pyrazol-1-yl)-N—((R)-2-(3,5-difluorophenyl)-1-(6-(3-oxoisoindolin-5-yl)-2-(4-(pyridin-4-yl)piperazin-1-yl)thiazolo[4,5-b]pyridin-5-yl)ethyl)acetamide] came in with an EC50 of 1070 nM.

`NC(=O)c1cc(-c2cc3sc(N4CC5(COC5)C4)nc3nc2[C@H](Cc2cc(F)cc(F)c2)NC(=O)Cn2nc(C(F)F)c3c2C(F)(F)CCC3(F)F)ccc1F` [Compound 13, (S)-5-(5-(1-(2-(3-(difluoromethyl)-4,4,7,7-tetrafluoro-4,5,6,7-tetrahydro-TH-indazol-1-yl)acetamido)-2-(3,5-difluorophenyl)ethyl)-2-(2-oxa-6-azaspiro[3.3]heptan-6-yl)thiazolo[4,5-b]pyridin-6-yl)-2-fluorobenzamide] returned an EC50 of 126 nM.

Consider `O=C(Cn1nc(C(F)(F)F)c2c1C(F)(F)[C@@H]1C[C@H]21)N[C@@H](Cc1cc(F)cc(F)c1)c1nc2nc(-c3ccc(N4CCOCC4)cc3)sc2cc1-c1ccc2c(c1)C(=O)NC2` [Compound 144, 2-((3bS,4aR)-5,5-difluoro-3-(trifluoromethyl)-3b,4,4a,5-tetrahydro-1H-cyclopropa[3,4]cyclopenta[1,2-c]pyrazol-1-yl)-N—((S)-2-(3,5-difluorophenyl)-1-(2-(4-morpholinophenyl)-6-(3-oxoisoindolin-5-yl)thiazolo[4,5-b]pyridin-5-yl)ethyl)acetamide], for which the EC50 is 44.4 nM. This EC50 lies about 2.8-fold lower than the previous one.

Consider `NC(=O)c1cc(-c2cc3sc(N4CCN(c5nc6ccccc6[nH]5)CC4)nc3nc2[C@H](Cc2cc(F)cc(F)c2)NC(=O)Cn2nc(C(F)(F)F)c3c2C(F)(F)[C@@H]2C[C@H]32)ccc1F` [Compound 45, 5-(2-(4-(1H-benzo[d]imidazol-2-yl)piperazin-1-yl)-5-((S)-1-(2-((3bS,4aR)-5,5-difluoro-3-(trifluoromethyl)-3b,4,4a,5-tetrahydro-1H-cyclopropa[3,4]cyclopenta[1,2-c]pyrazol-1-yl)acetamido)-2-(3,5-difluorophenyl)ethyl)thiazolo[4,5-b]pyridin-6-yl)-2-fluorobenzamide], for which the EC50 stood at 144 nM.

The compound `Cn1nc(NS(C)(=O)=O)c2cccc(-c3cc4sc(N5CC6(COC6)C5)nc4nc3[C@H](Cc3cc(F)cc(F)c3)NC(=O)Cn3nc(C(F)(F)F)c4c3C(F)(F)[C@@H]3C[C@H]43)c21` [Example 77, 2-((3bS,4aR)-5,5-difluoro-3-(trifluoromethyl)-3b,4,4a,5-tetrahydro-1H-cyclopropa[3,4]cyclopenta[1,2-c]pyrazol-1-yl)-N—((S)-2-(3,5-difluorophenyl)-1-(6-(1-methyl-3-(methylsulfonamido)-1H-indazol-7-yl)-2-(2-oxa-6-azaspiro[3.3]heptan-6-yl)thiazolo[4,5-b]pyridin-5-yl)ethyl)acetamide] returned an EC50 of 15.8 nM.

As to `C[Si](C)(C)CCn1ccnc1-c1ccc(N2CCN(c3nc4nc([C@H](Cc5cc(F)cc(F)c5)NC(=O)Cn5nc(C(F)(F)F)c6c5C(F)(F)[C@@H]5C[C@H]65)c(-c5ccc(F)c(C(N)=O)c5)cc4s3)CC2)cc1` [Compound 28-2, 5-(5-((S)-1-(2-((3bS,4aR)-5,5-difluoro-3-(trifluoromethyl)-3b,4,4a,5-tetrahydro-1H-cyclopropa[3,4]cyclopenta[1,2-c]pyrazol-1-yl)acetamido)-2-(3,5-difluorophenyl)ethyl)-2-(4-(4-(1-(2-(trimethylsilyl)ethyl)-1H-imidazol-2-yl)phenyl)piperazin-1-yl)thiazolo[4,5-b]pyridin-6-yl)-2-fluorobenzamide], the concentration giving a half-maximal response (EC50) was not below 53200 nM.

`NC(=O)c1cc(-c2cc3sc(N4CCn5cnnc5C4)nc3nc2[C@H](Cc2cc(F)cc(F)c2)NC(=O)Cn2nc(C(F)(F)F)c3c2C(F)(F)[C@@H]2C[C@H]32)ccc1F` [Compound 31, 5-(5-((S)-1-(2-((3bS,4aR)-5,5-difluoro-3-(trifluoromethyl)-3b,4,4a,5-tetrahydro-1H-cyclopropa[3,4]cyclopenta[1,2-c]pyrazol-1-yl)acetamido)-2-(3,5-difluorophenyl)ethyl)-2-(5,6-dihydro-[1,2,4]triazolo[4,3-a]pyrazin-7(8H)-yl)thiazolo[4,5-b]pyridin-6-yl)-2-fluorobenzamide]: the EC50 was 466 nM.

Turning to `Cn1nc(NS(C)(=O)=O)c2c(Cl)ccc(-c3cc4[nH]c(C5CC5)nc4nc3[C@H](Cc3cc(F)cc(F)c3)NC(=O)Cn3nc(C(F)F)c4c3C(F)(F)[C@@H]3C[C@H]43)c21` [Example 97, N—((S)-1-(6-(4-chloro-1-methyl-3-(methylsulfonamido)-1H-indazol-7-yl)-2-cyclopropyl-1H-imidazo[4,5-b]pyridin-5-yl)-2-(3,5-difluorophenyl)ethyl)-2-((3bS,4aR)-3-(difluoromethyl)-5,5-difluoro-3b,4,4a,5-tetrahydro-1H-cyclopropa[3,4]cyclopenta[1,2-c]pyrazol-1-yl)acetamide], the EC50 was determined as 3.1 nM. Against the preceding compound, the EC50 is about 150-fold lower.

`Cn1nc(NS(C)(=O)=O)c2cccc(-c3cc4sc(-c5cn[nH]c5)nc4nc3C(Cc3cc(F)cc(F)c3)NC(=O)Cn3nc(C(F)(F)F)c4c3C(F)(F)[C@@H]3C[C@H]43)c21` (stereo partly drawn) [Compound 132, 2-((3bS,4aR)-5,5-difluoro-3-(trifluoromethyl)-3b,4,4a,5-tetrahydro-1H-cyclopropa[3,4]cyclopenta[1,2-c]pyrazol-1-yl)-N-(2-(3,5-difluorophenyl)-1-(6-(1-methyl-3-(methylsulfonamido)-1H-indazol-7-yl)-2-(1H-pyrazol-4-yl)thiazolo[4,5-b]pyridin-5-yl)ethyl)acetamide] gave a concentration giving a half-maximal response (EC50) of 43.7 nM.

`CC(C)c1nc2nc([C@H](Cc3cc(F)cc(F)c3)NC(=O)Cn3nc(C(F)F)c4c3C(F)(F)[C@@H]3C[C@H]43)c(-c3ccc(Cl)c4c(NS(C)(=O)=O)nn(C)c34)cc2[nH]1` [Example 104, N—((S)-1-(6-(4-chloro-1-methyl-3-(methylsulfonamido)-1H-indazol-7-yl)-2-isopropyl-TH-imidazo[4,5-b]pyridin-5-yl)-2-(3,5-difluorophenyl)ethyl)-2-((3bS,4aR)-3-(difluoromethyl)-5,5-difluoro-3b,4,4a,5-tetrahydro-TH-cyclopropa[3,4]cyclopenta[1,2-c]pyrazol-1-yl)acetamide] displayed an EC50 of 4.4 nM.
